Measured values: patent US8455240B2, “Use of thermophilic sulphate-reducing archaea for the implementation of a process for the degradation of hydrocarbons” (Institut de Recherche pour le Development (I.R.D.), priority 2005, dated 2013)
Values joined by “and” are separate entries in the source; they are usually repeats but may differ in a detail not shown here. Equal values may be shown once.

Tests used:
strain L-3 [1] = experiment: Sources of carbon and energy used by the strain L-3; type: cell-based, Archaeoglobus fulgidus CNCM I-3465 (strain L-3); details: for OD 580 nm Final / OD 580 nm Initial / H2S (480 nm): thiosulphate as electron acceptor; for HPLC analyses, initial quantity of the substrate: no increase in biomass or sulphide, explained by isomerization at high temperature
Experimental: (§1) Experimentally, 4 ml of Cord-Ruwish reagent comprising 50 mmol/l of HCl and 5 mmol/l of CuSO4 are added to 0.1 ml of sample. Copper sulphate (CuSO4) by reacting with hydrogen sulphide (H2S), forms a copper sulphide precipitate (CuS) after the reaction: CuSO4+H2S→CuS+H2SO4
(§2) According to this method, the CuS is assayed by spectrophotometry at 480 nm. The readings are carried out against a blank constituted by 4 ml of Cord-Ruwish reagent.
(§3) The analysis and quantification of the metabolites are carried out by HPLC by measuring the disappearance of the substrate and the appearance of different metabolism products.
The study of the growth of the strain L-3 in the presence of different sources of carbon and energy was carried out with thiosulphate as an electron acceptor. The monitoring was carried out by estimation of the cell biomass (OD 580 nm), by assay of the sulphide production (Cord-Ruwish). The results were confirmed by HPLC analyses, and completed in certain cases by a CO2 assay.

strain L-3 [2] = experiment: Degradation of different substrates by the strain L-3 as a function of the electron acceptor; type: cell-based, Archaeoglobus fulgidus CNCM I-3465 (strain L-3); set-up: total H2S: unit not given here; details: for ability of the strain L-3 to degrade the substrate: thiosulphate or sulphate as electron acceptor
Experimental: as §1, §2, §3
(§4) The study of the degradation abilities of different substrates of the strain L-3 was based on a comparison with the collection strain, Archaeoglobus fulgidus (DSM 4304). The degradation of the substrates, by the two strains was monitored by a measurement of the cell biomass at 580 nm, a sulphide assay produced according to the Cord-Ruwish method, a study of the degradation metabolites by HPLC, completed by a CO2 assay with a GPC-Katharometer.
(§5) Two series of tests were prepared, one with thiosulphate, the other with sulphate as an electron acceptor.

[3] = system: Archaeoglobus fulgidus (DSM 4304); experiment: Degradation of different substrates by A. fulgidus as a function of the electron acceptor; type: cell-based; details: for ability of Archaeoglobus fulgidus to oxidize the substrate: thiosulphate or sulphate as electron acceptor
Experimental: as §1, §2, §3, §4, §5

Archaeoglobus fulgidus = experiment: Screening for hydrocarbon degradation, A. fulgidus (sulphide production, Cord-Ruwish); type: cell-based; details: for sulphide production (OD 480) 0 d: aromatics solubilized in HMN; for ΔS tf-ti: final minus initial sulphide
Experimental: as §1, §2
(§6) The study of the hydrocarbon degradation abilities is an experiment which requires a particularly long incubation. Thus, it was carried out in Bellco tubes sealed with thick rubber stoppers.
(§7) For these experiments, tubes containing 10 ml of culture medium without substrate, are 10% inoculated, then the hydrocarbon is introduced by injection through the stopper.
(§8) The hydrocarbons chosen are model molecules belonging to the different classes of hydrocarbons, namely: • hexadecane (CH3(CH2)14CH3, C16), a saturated linear aliphatic hydrocarbon; • hexadecene (CH3(CH2)13CHCH2, C16:1), an unsaturated linear aliphatic hydrocarbon of biogenic origin; • dibenzothiophene (DBT, C12H8S), a sulphur-containing aromatic hydrocarbon.
(§9) The aliphatic hydrocarbons (C16; C16:1) are added to the corresponding tubes, at a rate of 0.04 ml/10 ml of culture medium. The aromatic hydrocarbons (DBT) are solubilized in 2,2,4,4,6,8,8-heptamethylnonane (HMN, C16H34) at a rate of 20 mg/ml of HMN, and 0.75 ml of this solution is injected into 10 ml of culture medium.
(§10) 3 tubes were produced for each test and control. The growth of the strains was monitored indirectly by the production of sulphide.
(§11) A subculture was carried out starting from the preceding experiment on naphthalene, DBT solubilized as previously in HMN, and on HMN alone, for the two strains studied.

strain L-3 [4] = experiment: Screening for hydrocarbon degradation, strain L-3 (sulphide production, Cord-Ruwish); type: cell-based, Archaeoglobus fulgidus CNCM I-3465 (strain L-3); details: for sulphide production (OD 480) 0 d: aromatics solubilized in HMN
Experimental: as §1, §2, §6, §7, §8, §9, §10, §11

A. fulgidus = experiment: Subculture on hydrocarbons, A. fulgidus (sulphide production); type: cell-based, Archaeoglobus fulgidus
Experimental: as §1, §2, §11
(§12) For this subculture, apart from the tests containing the hydrocarbon (DBT, naphthalene (Naph), […]), and seeded with the previously chosen inoculum, abiotic controls (negative controls) containing the substrate (hydrocarbon) but not inoculated were produced for the purpose of quantifying the sulphide production which could be due to chemical reactions between the different constituents of the medium. In these controls there was no development in the concentration of sulphide over a period of 20 days (Table 4).

strain L-3 [5] = experiment: Subculture on hydrocarbons, strain L-3 (sulphide production); type: cell-based, Archaeoglobus fulgidus CNCM I-3465 (strain L-3)
Experimental: as §1, §2, §11, §12

[6] = thiosulphate as electron acceptor
[7] = sulphate as electron acceptor, unit from b116
[8] = thiosulphate as electron acceptor, unit from b116
[9] = choice of the inoculum for the subculture, tubes of the screening

CC(=O)O [Acetate]
OD 580 nm Final (strain L-3 [1]): 0.0904 and 0.0812
OD 580 nm Initial (strain L-3 [1]): 0.0671 and 0.0771
H2S (480 nm) (strain L-3 [1]; unit from b126): 0.4 mM and 0.3 mM

O=CO [Formate]
final OD 580 (strain L-3 [2]; sulphate as electron acceptor): 0.0711 and 0.064
initial OD 580 (strain L-3 [2]; sulphate as electron acceptor): 0.0585 and 0.0634
total H2S (strain L-3 [2]; sulphate as electron acceptor): 2.5 and 5
final OD 580 (strain L-3 [2]; [6]): 0.1048 and 0.1186
initial OD 580 (strain L-3 [2]; [6]): 0.1003 and 0.1241
total H2S (strain L-3 [2]; [6]): 3.6 and 2.8
ability of the strain L-3 to degrade the substrate (strain L-3 [2]): does not develop
final OD 580 ([3]; sulphate as electron acceptor): 0.1 and 0.1157
initial OD 580 ([3]; sulphate as electron acceptor): 0.0805 and 0.0853
total H2S [3, 7]: 3.6 mM and 5 mM
final OD 580 [3, 6]: 0.1218 and 0.1208
initial OD 580 [3, 6]: 0.1107 and 0.1183
total H2S [3, 8]: 5.8 mM and 7.4 mM
ability of Archaeoglobus fulgidus to oxidize the substrate [3]: capable of oxidizing
OD 580 nm Final (strain L-3 [1]): 0.0672 and 0.0759
OD 580 nm Initial (strain L-3 [1]): 0.0765 and 0.0875
H2S (480 nm) (strain L-3 [1]; unit from b126): 0.2 mM and 0.4 mM

hexadecene [C16:1]
sulphide production (OD 480) 0 d (Archaeoglobus fulgidus): 0.8 mM and 0.6 mM
sulphide production (OD 480) 45 d (Archaeoglobus fulgidus): 3.6 mM and 4.3 mM
ΔS tf-ti (Archaeoglobus fulgidus): approximately 3 mM
ΔS tf-ti (Archaeoglobus fulgidus; listed as C16: 1): 2.8 mM and 3.0 mM and 3.5 mM

Starch
OD 580 nm Initial (strain L-3 [1]): 0.8834 and 0.8614
H2S (480 nm) (strain L-3 [1]; unit from b126): 0.8 mM and 0.7 mM

CCCCCCCCCCCCCCCC [C16, hexadecane]
sulphide production (OD 480) 0 d (Archaeoglobus fulgidus): 0.7 mM and 0.8 mM and 0.9 mM
sulphide production (OD 480) 70 d (Archaeoglobus fulgidus): 1 mM and 0.5 mM and 0.8 mM
sulphide production (OD 480) 0 d (strain L-3 [4]): 0.6 mM and 0.5 mM and 0.9 mM

c1ccc2ccccc2c1 [Naphthalene, naphthalene]
sulphide production (OD 480) 0 d (A. fulgidus; 0 d): 0.2 mM
sulphide production (OD 480) 8 d (A. fulgidus; 8 d): 0.8 mM and 0.4 mM and 0.5 mM
sulphide production (OD 480) 0 d (Archaeoglobus fulgidus): 0.8 mM
sulphide production (OD 480) 10 d (Archaeoglobus fulgidus): 0.4 mM and 0.6 mM and 0.8 mM
sulphide production (OD 480) 45 d (Archaeoglobus fulgidus): 0.8 mM and 1.1 mM and 1.4 mM
sulphide production (OD 480) 60 d (Archaeoglobus fulgidus): 0.7 mM and 1.2 mM
sulphide production (OD 480) 70 d (Archaeoglobus fulgidus): 1.3 mM and 1.7 mM
H2S (Archaeoglobus fulgidus; [9]): 1.3 mM and 1.7 mM
ΔS tf-ti (Archaeoglobus fulgidus): 0.5 mM and 0.9 mM
sulphide production (OD 480) 0 d (strain L-3 [5]; 0 d): 0.2 mM (2×) and 0.3 mM
sulphide production (OD 480) 8 d (strain L-3 [5]; 8 d): 0.5 mM and 0.4 mM and 0.6 mM
sulphide production (OD 480) 22 d (strain L-3 [5]; 22 d): 0.9 mM and 0.5 mM and 0.8 mM
sulphide production (OD 480) 45 d (strain L-3 [5]; 45 d): 0.9 mM and 0.7 mM and 1.3 mM
ΔS tf-ti (strain L-3 [5]; final minus initial sulphide): 0.7 mM and 0.5 mM and 1 mM
sulphide production (OD 480) 0 d (strain L-3 [4]): 0.8 mM and 0.6 mM
sulphide production (OD 480) 10 d (strain L-3 [4]; 10 d): 0.4 mM and 0.3 mM and 0.6 mM
sulphide production (OD 480) 45 d (strain L-3 [4]): 0.9 mM and 1 mM and 0.8 mM
sulphide production (OD 480) 60 d (strain L-3 [4]): 0.6 mM and 0.5 mM
sulphide production (OD 480) 70 d (strain L-3 [4]): 1.7 mM and 1.3 mM and 1.1 mM
H2S (strain L-3 [4]; [9]): 1.3 mM and 1.1 mM

O=C(O)/C=C/C(=O)O [Fumarate]
final OD 580 (strain L-3 [2]; sulphate as electron acceptor): 0.1085 and 0.0899
initial OD 580 (strain L-3 [2]; sulphate as electron acceptor): 0.0606 and 0.062
total H2S (strain L-3 [2]; sulphate as electron acceptor): 2.5 and 3.3
final OD 580 (strain L-3 [2]; [6]): 0.1431 and 0.1137
initial OD 580 (strain L-3 [2]; [6]): 0.1083 and 0.0796
total H2S (strain L-3 [2]; [6]): 3.2 and 2.5
ability of the strain L-3 to degrade the substrate (strain L-3 [2]): capable of degrading
final OD 580 ([3]; sulphate as electron acceptor): 0.1122 and 0.14
initial OD 580 ([3]; sulphate as electron acceptor): 0.0759 and 0.085
total H2S [3, 7]: 2.4 mM and 3.1 mM
total H2S ([3]; sulphate as electron acceptor, unit from b116, listed as fumarate): ≤ 3.1 mM
final OD 580 [3, 6]: 0.1399 and 0.1535
initial OD 580 [3, 6]: 0.1085 and 0.117
total H2S [3, 8]: 5.1 mM and 6.5 mM
total H2S ([3]; thiosulphate as electron acceptor, unit from b116, listed as fumarate): 6.5 mM
ability of Archaeoglobus fulgidus to oxidize the substrate [3]: capable of oxidizing

CCC(=O)O [Propionate, propionate]
OD 580 nm Final (strain L-3 [1]): 0.0871 and 0.072
OD 580 nm Initial (strain L-3 [1]): 0.0669 and 0.0717
H2S (480 nm) (strain L-3 [1]; unit from b126): 0.3 mM

O=C(O)CCC(=O)O [Succinate]
OD 580 nm Final (strain L-3 [1]): 0.0659 and 0.0672
OD 580 nm Initial (strain L-3 [1]): 0.0845 and 0.0791
H2S (480 nm) (strain L-3 [1]; unit from b126): 0.3 mM

O=C[C@H](O)[C@H](O)[C@H](O)CO [Ribose, ribose]
HPLC analyses, initial quantity of the substrate (strain L-3 [1]): reduction in the initial quantity of the substrate
OD 580 nm Final (strain L-3 [1]): 0.3422 and 0.21
H2S (480 nm) (strain L-3 [1]; unit from b126): 0.6 mM and 0.5 mM

c1ccc2c(c1)ccc1ccccc12 [Phenanthrene, phenanthrene]
sulphide production (OD 480) 10 d (Archaeoglobus fulgidus): 1.1 mM and 0.8 mM and 1.4 mM
sulphide production (OD 480) 60 d (Archaeoglobus fulgidus): 0.8 mM and 0.5 mM
ΔS tf-ti (Archaeoglobus fulgidus): ≤ 0.5 mM
sulphide production (OD 480) 45 d (strain L-3 [4]): 0.5 mM and 1 mM and 0.8 mM
sulphide production (OD 480) 60 d (strain L-3 [4]): 0.4 mM and 0.5 mM and 0.3 mM
sulphide production (OD 480) 70 d (strain L-3 [4]): 0.5 mM and 0.6 mM and 0.8 mM
ΔS tf-ti (strain L-3 [4]; final minus initial sulphide): ≤ 0.5 mM

CC(=O)C(=O)O [Pyruvate, pyruvate]
final OD 580 (strain L-3 [2]; sulphate as electron acceptor): 0.0958 and 0.0944
initial OD 580 (strain L-3 [2]; sulphate as electron acceptor): 0.0603 and 0.0636
total H2S (strain L-3 [2]; sulphate as electron acceptor): 3.5 and 3.3
final OD 580 (strain L-3 [2]; [6]): 0.1161 and 0.0863
initial OD 580 (strain L-3 [2]; [6]): 0.0785 and 0.0911
total H2S (strain L-3 [2]; [6]): 4
final OD 580 ([3]; sulphate as electron acceptor): 0.1643 and 0.1575
initial OD 580 ([3]; sulphate as electron acceptor): 0.1281 and 0.1377
total H2S ([3]; sulphate as electron acceptor): 10.3 mM and 7.3 mM
final OD 580 [3, 6]: 0.3668 and 0.3489
initial OD 580 [3, 6]: 0.1368 and 0.1351
H2S (480 nm) (strain L-3 [1]): 5.2 mM
OD 580 nm Final (strain L-3 [1]): 0.1315 and 0.1758
OD 580 nm Initial (strain L-3 [1]): 0.067 and 0.0713

O=C(CO)[C@@H](O)[C@H](O)[C@H](O)CO [Fructose, fructose]
HPLC analyses, initial quantity of the substrate (strain L-3 [1]): reduction in the initial quantity of the substrate
OD 580 nm Final (strain L-3 [1]): 0.1003 and 0.0893
OD 580 nm Initial (strain L-3 [1]): 0.0663 and 0.0818
H2S (480 nm) (strain L-3 [1]; unit from b126): 0.3 mM

Gelatin
OD 580 nm Final (strain L-3 [1]): 0.0743 and 0.0767
OD 580 nm Initial (strain L-3 [1]): 0.0629 and 0.0894
H2S (480 nm) (strain L-3 [1]; unit from b126): 0.3 mM and 0.2 mM
